Reference: patent publication US20160271263A1 (Novo Nordisk A/S, priority 2010, published 2016)
Read-outs that look alike come from different tables or passages of the source. Numbered stars: 1 amine (or outer) side, 2 acyl side, 3 side chain; on linkers, the order of the positions; unused ones are H or OH. Side chains are listed from the residue outwards. Peptide text beside a SMILES is read from it. * marks the point of attachment. C18 diacid = O=C(O)CCCCCCCCCCCCCCCCC(=O)*; γGlu = O=C(O)[C@H](CCC(=O)[*:2])N[*:1]; AEEA = NCCOCCOCC(=O)O

Legend:
in vivo = conditions: male, Sprague Dawley, rat, plasma
Protocol: Fifteen male rats (Sprague Dawley, 400 g, Taconic Europe) were divided into three groups of five rats. The rats were dosed at t=0 with either 15 nmol/kg IV, 30 nmol/kg SC, or 100 nmol/kg, respectively. The IV dosing was performed via the tail vein while the rats were shortly under isoflurane anaesthesia. […] Plasma samples were stored on freeze until analysed by LCMS.

glucagon receptor [1] = biological target: T1, glucagon receptor (Homo sapiens, UniProt P47871); assay: cell-based
T1 sequence (P47871 26-477): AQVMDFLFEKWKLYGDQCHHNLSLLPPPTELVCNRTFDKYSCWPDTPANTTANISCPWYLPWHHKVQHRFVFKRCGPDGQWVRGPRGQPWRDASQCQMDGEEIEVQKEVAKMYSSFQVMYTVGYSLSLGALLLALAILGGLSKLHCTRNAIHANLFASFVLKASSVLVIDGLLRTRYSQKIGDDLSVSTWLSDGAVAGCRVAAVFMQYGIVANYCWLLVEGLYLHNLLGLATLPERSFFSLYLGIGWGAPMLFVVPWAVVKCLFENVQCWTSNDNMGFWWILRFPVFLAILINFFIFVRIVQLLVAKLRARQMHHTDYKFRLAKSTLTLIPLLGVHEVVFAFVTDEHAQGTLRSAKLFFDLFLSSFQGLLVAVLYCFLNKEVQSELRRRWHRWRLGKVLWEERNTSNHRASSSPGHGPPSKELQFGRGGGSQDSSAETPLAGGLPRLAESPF

DPP-IV = DPP-IV (Homo sapiens, UniProt P27487); assay: in vitro
Sequence of DPP-IV (P27487 whole entry, species assumed): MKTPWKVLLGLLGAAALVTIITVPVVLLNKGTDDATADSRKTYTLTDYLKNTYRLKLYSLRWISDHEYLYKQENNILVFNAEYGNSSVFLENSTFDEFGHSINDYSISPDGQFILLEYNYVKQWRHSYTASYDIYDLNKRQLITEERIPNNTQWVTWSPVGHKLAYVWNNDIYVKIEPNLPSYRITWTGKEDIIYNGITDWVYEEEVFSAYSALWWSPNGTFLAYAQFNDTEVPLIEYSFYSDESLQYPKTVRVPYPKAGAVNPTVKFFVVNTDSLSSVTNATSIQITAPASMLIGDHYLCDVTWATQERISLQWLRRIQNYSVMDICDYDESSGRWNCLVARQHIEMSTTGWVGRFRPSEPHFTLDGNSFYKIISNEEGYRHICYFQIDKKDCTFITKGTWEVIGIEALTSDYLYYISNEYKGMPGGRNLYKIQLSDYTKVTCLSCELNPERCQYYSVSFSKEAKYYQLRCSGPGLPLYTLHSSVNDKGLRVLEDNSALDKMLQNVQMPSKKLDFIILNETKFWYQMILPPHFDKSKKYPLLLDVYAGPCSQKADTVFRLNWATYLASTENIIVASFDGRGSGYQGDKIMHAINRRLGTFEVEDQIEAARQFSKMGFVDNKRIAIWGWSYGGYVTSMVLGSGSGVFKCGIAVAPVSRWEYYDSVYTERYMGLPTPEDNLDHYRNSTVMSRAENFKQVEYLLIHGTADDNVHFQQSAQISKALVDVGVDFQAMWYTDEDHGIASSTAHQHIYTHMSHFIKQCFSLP
Protocol: 10 μM of peptide was incubated with DPP-IV (2 μg/ml) in duplicate at 37° C. in a HEPES buffer to which 0.005% Tween20 were added. […] The samples were analysed by LC-MS for parent peptide. Data were plotted according to 1st kinetics and the stability was reported as half-lives.

glucagon receptor [2] = biological target: T1, glucagon receptor; conditions: read-out: Assay (I) Glucagon [EC50]; Table 1; HEK-293 cells, end point data after 6 minutes
[3] = ThT fibrillation assay for physical stability (lag time and recovery); assay type: physicochemical; conditions: Table 2
Source text: This has traditionally been measured by visual inspection of the sample. However, that kind of measurement is very subjective and depending on the observer. Therefore, the application of a small molecule indicator probe is much more advantageous. […] Enzymol.
Here, F is the ThT fluorescence at the time t. […] The two important parameters describing fibril formation are the lag-time calculated by t0−2τ and the apparent rate constant kapp 1/τ.
Few of those intermediates nucleate to form a template onto which further intermediates may assembly and the fibrillation proceeds. The lag-time corresponds to the interval in which the critical mass of nucleus is built up and the apparent rate constant is the rate with which the fibril itself is formed.
Samples were prepared freshly before each assay. […] The pH of the sample was adjusted to the desired value using appropriate amounts of concentrated NaOH and HCl. Thioflavin T was added to the samples from a stock solution in H2O to a final concentration of 1 μM.
The plate was sealed with Scotch Pad (Qiagen).
Each run was initiated by incubating the plate at the assay temperature for 10 min. The plate was measured every 20 minutes for a desired period of time. Between each measurement, the plate was shaken and heated as described.
The supernatant was filtered through a 0.22 μm filter and an aliquot was transferred to a HPLC vial. […]

SMILES | EC50 (glucagon receptor [1]) | EC50 (glucagon receptor [2]) | further results
CC(C)C[C@H](NC(=O)[C@H](Cc1ccc(O)cc1)NC(=O)[C@H](CCCCN)NC(=O)[C@H](CO)NC(=O)[C@H](Cc1ccc(O)cc1)NC(=O)[C@H](CC(=O)O)NC(=O)[C@H](CO)NC(=O)[C@@H](NC(=O)[C@H](Cc1ccccc1)NC(=O)[C@@H](NC(=O)CNC(=O)[C@H](CCC(N)=O)NC(=O)[C@H](CO)NC(=O)[C@@H](N)Cc1c[nH]cn1)[C@@H](C)O)[C@@H](C)O)C(=O)N[C@@H](CC(=O)O)C(=O)N[C@@H](CO)C(=O)N[C@@H](CCCCN)C(=O)N[C@@H](CCCCN)C(=O)N[C@@H](C)C(=O)N[C@@H](CCC(N)=O)C(=O)N[C@@H](CCC(=O)O)C(=O)N[C@@H](Cc1ccccc1)C(=O)N[C@H](C(=O)N[C@@H](CCCCNC(=O)COCCOCCNC(=O)COCCOCCNC(=O)CC[C@H](NC(=O)CCCCCCCCCCCCCCCCC(=O)O)C(=O)O)C(=O)N[C@@H](Cc1c[nH]c2ccccc12)C(=O)N[C@@H](CC(C)C)C(=O)N[C@@H](CC(C)C)C(=O)N[C@@H](CC(N)=O)C(=O)N[C@H](C(=O)O)[C@@H](C)O)C(C)C [Example 3] (H-HSQGTFTSDYSKYLDSKKAQEFVK([AEEA-AEEA-γGlu-C18 diacid])WLLNT-OH) | 0.019 nM | – | half-life (in vivo; iv, 15 nmol/kg): ~8.6 h; half-life (in vivo; sc, 30 nmol/kg): ~9.4 h; half-life at 10 μM (DPP-IV): 4.33 h
CC(C)C[C@H](NC(=O)[C@H](Cc1ccc(O)cc1)NC(=O)[C@H](CCCNC(=N)N)NC(=O)[C@H](CO)NC(=O)[C@H](Cc1ccc(O)cc1)NC(=O)[C@H](CC(=O)O)NC(=O)[C@H](CO)NC(=O)[C@@H](NC(=O)[C@H](Cc1ccccc1)NC(=O)[C@@H](NC(=O)CNC(=O)[C@H](CCC(N)=O)NC(=O)[C@H](CO)NC(=O)[C@@H](N)Cc1c[nH]cn1)[C@@H](C)O)[C@@H](C)O)C(=O)N[C@@H](CC(=O)O)C(=O)N[C@@H](CO)C(=O)N[C@@H](CCCNC(=N)N)C(=O)N[C@@H](CCCNC(=N)N)C(=O)N[C@@H](C)C(=O)N[C@@H](CCC(N)=O)C(=O)N[C@@H](CC(=O)O)C(=O)N[C@@H](Cc1ccccc1)C(=O)N[C@H](C(=O)N[C@@H](CCCCNC(=O)COCCOCCNC(=O)COCCOCCNC(=O)CC[C@H](NC(=O)CCCCCCCCCCCCCCCCC(=O)O)C(=O)O)C(=O)N[C@@H](Cc1c[nH]c2ccccc12)C(=O)N[C@@H](CC(C)C)C(=O)N[C@@H](CC(C)C)C(=O)N[C@@H](CC(N)=O)C(=O)N[C@H](C(=O)O)[C@@H](C)O)C(C)C [Example 20] (H-HSQGTFTSDYSRYLDSRRAQDFVK([AEEA-AEEA-γGlu-C18 diacid])WLLNT-OH; N-terminus and C-terminus assumed) | – | 0.109 nM | –
CC(C)C[C@H](NC(=O)[C@H](Cc1ccc(O)cc1)NC(=O)[C@H](CCCCN)NC(=O)[C@H](CO)NC(=O)[C@H](Cc1ccc(O)cc1)NC(=O)[C@H](CC(=O)O)NC(=O)[C@H](CO)NC(=O)[C@@H](NC(=O)[C@H](Cc1ccccc1)NC(=O)[C@@H](NC(=O)CNC(=O)[C@H](CCC(N)=O)NC(=O)[C@H](CO)NC(=O)[C@@H](N)Cc1c[nH]cn1)[C@@H](C)O)[C@@H](C)O)C(=O)N[C@@H](CC(=O)O)C(=O)N[C@@H](CO)C(=O)N[C@@H](CCCNC(=N)N)C(=O)N[C@@H](CCCNC(=N)N)C(=O)N[C@@H](C)C(=O)N[C@@H](CCC(N)=O)C(=O)N[C@@H](CCC(=O)O)C(=O)N[C@@H](Cc1ccccc1)C(=O)N[C@H](C(=O)N[C@@H](CCCCNC(=O)COCCOCCNC(=O)COCCOCCNC(=O)CC[C@H](NC(=O)CCCCCCCCCCCCCCCCC(=O)O)C(=O)O)C(=O)N[C@@H](Cc1c[nH]c2ccccc12)C(=O)N[C@@H](CC(C)C)C(=O)N[C@@H](CC(C)C)C(=O)N[C@@H](CC(N)=O)C(=O)N[C@H](C(=O)O)[C@@H](C)O)C(C)C [Example 21] | – | 0.021 nM | –
CC(C)C[C@H](NC(=O)[C@H](Cc1ccc(O)cc1)NC(=O)[C@H](CCCCN)NC(=O)[C@H](CO)NC(=O)[C@H](Cc1ccc(O)cc1)NC(=O)[C@H](CC(=O)O)NC(=O)[C@H](CO)NC(=O)[C@@H](NC(=O)[C@H](Cc1ccccc1)NC(=O)[C@@H](NC(=O)CNC(=O)[C@H](CCC(N)=O)NC(=O)[C@H](CO)NC(=O)[C@@H](N)Cc1c[nH]cn1)[C@@H](C)O)[C@@H](C)O)C(=O)N[C@@H](CC(=O)O)C(=O)N[C@@H](CO)C(=O)N[C@@H](CCCNC(=N)N)C(=O)N[C@@H](CCCNC(=N)N)C(=O)N[C@@H](C)C(=O)N[C@@H](CCC(N)=O)C(=O)N[C@@H](CC(=O)O)C(=O)N[C@@H](Cc1ccccc1)C(=O)N[C@H](C(=O)N[C@@H](CCCCNC(=O)CC[C@H](NC(=O)CC[C@H](NC(=O)CC[C@H](NC(=O)CCCCCCCCCCCCCCCCC(=O)O)C(=O)O)C(=O)O)C(=O)O)C(=O)N[C@@H](Cc1c[nH]c2ccccc12)C(=O)N[C@@H](CC(C)C)C(=O)N[C@@H](CC(C)C)C(=O)N[C@@H](CO)C(=O)N[C@H](C(=O)O)[C@@H](C)O)C(C)C [Example 71, N^ε24-[(4S)-4-carboxy-4-[[(4S)-4-carboxy-4-[[(4S)-4-carboxy-4-(17-carboxyheptadecanoylamino)butanoyl]amino]butanoyl]amino]butanoyl]-[Lys^24,Leu^27,Ser^28]-Glucagon] | 0.094 nM | – | Th T assay [Lag time] [3]: 45 h
CC(C)C[C@H](NC(=O)[C@H](Cc1ccc(O)cc1)NC(=O)[C@H](CCCCN)NC(=O)[C@H](CO)NC(=O)[C@H](Cc1ccc(O)cc1)NC(=O)[C@H](CC(=O)O)NC(=O)[C@H](CO)NC(=O)[C@@H](NC(=O)[C@H](Cc1ccccc1)NC(=O)[C@@H](NC(=O)CNC(=O)[C@H](CCC(N)=O)NC(=O)[C@H](CO)NC(=O)[C@@H](N)Cc1c[nH]cn1)[C@@H](C)O)[C@@H](C)O)C(=O)N[C@@H](CC(=O)O)C(=O)N[C@@H](CO)C(=O)N[C@@H](CCCNC(=N)N)C(=O)N[C@@H](CCCNC(=N)N)C(=O)N[C@@H](C)C(=O)N[C@@H](CCC(=O)O)C(=O)N[C@@H](CC(=O)O)C(=O)N[C@@H](Cc1ccccc1)C(=O)N[C@H](C(=O)N[C@@H](CCCCNC(=O)CC[C@H](NC(=O)CC[C@H](NC(=O)COCCOCCNC(=O)COCCOCCNC(=O)CC[C@H](NC(=O)CCCCCCCCCCCCCCCCC(=O)O)C(=O)O)C(=O)O)C(=O)O)C(=O)N[C@@H](Cc1c[nH]c2ccccc12)C(=O)N[C@@H](CC(C)C)C(=O)N[C@@H](CC(C)C)C(=O)N[C@@H](CO)C(=O)N[C@H](C(=O)O)[C@@H](C)O)C(C)C [Example 101, N^ε24-[(4S)-4-carboxy-4-[[(4S)-4-carboxy-4-[[2-[2-[2-[[2-[2-[2-[[(4S)-4-carboxy-4-(17-carboxyheptadecanoylamino)butanoyl]amino]ethoxy]ethoxy]acetyl]amino]ethoxy]ethoxy]acetyl]amino]butanoyl]amino]butanoyl]-[Glu^20,Lys^24,Leu^27,Ser^28]-Glucagon] | 0.307 nM | – | –
